# What was measured:
# [1] = system: incorrect dNTP-F1s opposite dA in the template; test: Fidelity: misincorporation of the three incorrect dNTP-F1s opposite dA in the template; assay type: biochemical; conditions: even after 90 minutes
# Protocol: To examine the fidelity of Taq197, the misincorporation of the three incorrect dNTP-F1s opposite dA in the template was characterized. […] Thus, based on the detection limit of the assay, it was possible to set an upper limit of 5.6×10^−4 min^−1 for the rate of mispair formation, making correct incorporation of modified nucleotides more than 5,000-fold more efficient than mispair formation.
# [2] = system: dNTP-F1 / scarred primer terminus; test: Sequencing-like kinetic assay: extension of scarred primer terminus with dNTP-F1 by Taq or Taq197; assay type: biochemical; conditions: 37° C., 40 nM enzyme, 10 nM DNA, 100 nM dNTP-F1
# Protocol: Scarred primers were prepared enzymatically; following annealing of natural primers (bearing Rhodamine 110 dye-label, purchased from IDT) to templates, 15 U Klenow fragment (exo−) (New England Biolabs) in its supplied buffer was incubated with 5 μM DNA and 25 μM scarred dNTPs in 100 μL for 20 minutes at room temperature to incorporate scarred nucleotides onto the primer. Upon completion, reaction mixtures were heated at 70° C. for 15 minutes to inactivate Klenow fragment and purified from the scarred dNTPs using a DTR spin column (Edge BioSystems). Scarred primers were observed on an ABI3730 DNA sequencer and conversion to the desired scarred primer was greater than 95%.
# Polymerases were added to a mixture containing scarred DNA (prepared in previous section), modified dNTPs, and reaction buffer and incubated at either 37° C. or 50° C. and aliquots removed at variable time points and added directly to a quenching solution containing 100 mM EDTA. Reaction products were characterized on an ABI3730 sequencer using the GeneScan™ LIZ 120® size standard (Applied Biosystems) as a reference. The ratio of peak heights, obtained using ABI Peak Scanner (v1.0), was used to calculate percent primer conversion as a function of time and the data was fit to a first order exponential (Prism 4 by GraphPad).
# The mutations found in Sf168, Sf197, and Sf267 were cloned into full length Taq, and extension of a scarred primer terminus was characterized by measuring the rate of incorporation of each dNTP-F1 by Taq or a selected mutant. Taq197 (corresponding to the mutations from Sf197) was the most optimized of the three polymerase mutants, incorporating each dNTP-F1 48- to 377-fold more efficiently than wild type Taq, with no apparent bias toward the identity of the dNTP-F1 or the sequence of the primer, as shown in Table 7 below. Buffer conditions were as follows: 20 mM Tris pH 8.8, 10 mM NaCl, 10 mM KCl, 10 mM ammonium sulfate, 0.1% Triton X-100, 10 mM MgCl2, 37° C., 40 nM enzyme, 10 nM DNA, 100 nM dNTP-F1. N1 nucleotides are scarred (see FIG. 1 panel B).
substance,measurement,setting,value
Taq: wild type full length T. aquaticus DNA polymerase I (Taq),synthesis of mispairs,[1],does not measurably synthesize any of the mispairs
same,rate of incorporation of dNTP-F1,"[2]; dNTP-F1 C, N1N1N1/N2N2N2 AAA/UUU",0.002 ± 0.0002 min⁻¹
same,rate of incorporation of dNTP-F1,"[2]; dNTP-F1 G, N1N1N1/N2N2N2 UIJU/AAA",0.14 ± 0.05 min⁻¹
same,rate of incorporation of dNTP-F1,"[2]; dNTP-F1 N = A, N1N1N1/N2N2N2 UUU/AAA",0.011 ± 0.002 min⁻¹
same,rate of incorporation of dNTP-F1,"[2]; dNTP-F1 U, N1N1N1/N2N2N2 CCC/GGG",0.05 ± 0.02 min⁻¹
